Measurements reported in PubChem BioAssay AID328 (DTP/NCI, 2004).
Values joined by “and” are separate entries in the source; they are usually repeats but may differ in a detail not shown here. Equal values may be shown once. Inconclusive results and toxic doses are left out.

Tested on: BDF1 mice, P388 leukemia ip, median survival T/C
Experiment: NCI In Vivo Anticancer Drug Screen. Data for tumor model P388 Leukemia (intraperitoneal) in B6D2F1 (BDF1) mice
Conditions: endpoint: median survival time, higher = longer survival
Summary of the method: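 Survival ratio, drug arm over vehicle arm, in mice with a transplanted tumour.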

[1] = dose: 50.0 mg/kg/injection, schedule: Q01DX009 (ip), vehicle: saline
[2] = dose: 200.0 mg/kg/injection, schedule: Q04DX003 (ip), vehicle: saline
[3] = dose: 400.0 mg/kg/injection, schedule: Q04DX003 (ip), vehicle: saline
[4] = dose: 100.0 mg/kg/injection, schedule: Q01DX009 (ip), vehicle: saline with Tween-80
[5] = dose: 200.0 mg/kg/injection, schedule: Q01DX009 (ip), vehicle: saline with Tween-80
[6] = dose: 400.0 mg/kg/injection, schedule: Q01DX009 (ip), vehicle: saline with Tween-80
[7] = dose: 50.0 mg/kg/injection, schedule: Q01DX009 (ip), vehicle: Klucel (hydroxypropylcellulose) (HPC)
[8] = dose: 100.0 mg/kg/injection, schedule: Q01DX009 (ip), vehicle: Klucel (hydroxypropylcellulose) (HPC)
[9] = dose: 200.0 mg/kg/injection, schedule: Q01DX009 (ip), vehicle: Klucel (hydroxypropylcellulose) (HPC)
[10] = dose: 12.5 mg/kg/injection, schedule: Q01DX009 (ip), vehicle: saline
[11] = dose: 25.0 mg/kg/injection, schedule: Q01DX009 (ip), vehicle: saline

Compound: O=C(O)C1CC[N-]CC1.O=C(O)C1CC[N-]CC1.O=C(O)C1CC[N-]CC1.O=C(O)C1CC[N-]CC1.[Br][Rh][Br]
- T/C [1]: 111 % of control
- T/C (dose: 100.0 mg/kg/injection, schedule: Q01DX009 (ip), vehicle: saline): 92 % of control and 93 % of control
- T/C (dose: 200.0 mg/kg/injection, schedule: Q01DX009 (ip), vehicle: saline): 93 % of control and 117 % of control
- T/C [2]: 116 % of control
- T/C [3]: 119 % of control

Compound: COc1cc(/C=N/Nc2ccc([N+](=O)[O-])cc2)cc(OC)c1OC
- T/C (dose: 50.0 mg/kg/injection, schedule: Q04DX003 (ip), vehicle: saline with Tween-80): 100 % of control
- T/C [4]: 95 % of control
- T/C (dose: 100.0 mg/kg/injection, schedule: Q04DX003 (ip), vehicle: saline with Tween-80): 95 % of control
- T/C [5]: 95 % of control
- T/C (dose: 200.0 mg/kg/injection, schedule: Q04DX003 (ip), vehicle: saline with Tween-80): 105 % of control
- T/C [6]: 100 % of control

Compound: CO[C@@]12[C@H](COC(N)=O)C3=C(C(=O)C(C)=C(N)C3=O)N1C[C@@H]1N[C@@H]12
- T/C (dose: 0.03 mg/kg/injection, schedule: Q01DX010 (ip), vehicle: water): 100 % of control
- T/C (dose: 0.06 mg/kg/injection, schedule: Q01DX010 (ip), vehicle: saline): 123 % of control
- T/C (dose: 0.06 mg/kg/injection, schedule: Q01DX010 (ip), vehicle: water): 115 % of control
- T/C (dose: 0.13 mg/kg/injection, schedule: Q01DX010 (ip), vehicle: water): 168 % of control
- T/C (dose: 0.25 mg/kg/injection, schedule: Q01DX010 (ip), vehicle: saline): 159 % of control and 161 % of control
- T/C (dose: 0.25 mg/kg/injection, schedule: Q01DX010 (ip), vehicle: water): 200 % of control
- T/C (dose: 0.5 mg/kg/injection, schedule: Q01DX010 (ip), vehicle: saline): 166 % of control and 213 % of control
- T/C (dose: 0.5 mg/kg/injection, schedule: Q01DX010 (ip), vehicle: water): 242 % of control
- T/C (dose: 1.0 mg/kg/injection, schedule: Q01DX010 (ip), vehicle: saline): 250 % of control and 180 % of control
- T/C (dose: 1.0 mg/kg/injection, schedule: Q01DX010 (ip), vehicle: water): 215 % of control
- T/C (dose: 1.08 mg/kg/injection, schedule: Q04DX003 (ip), vehicle: saline): 194 % of control and 196 % of control
- T/C (dose: 1.8 mg/kg/injection, schedule: Q04DX003 (ip), vehicle: saline): 243 % of control and 222 % of control
- T/C (dose: 2.0 mg/kg/injection, schedule: Q01DX010 (ip), vehicle: saline): 90 % of control and 114 % of control
- T/C (dose: 2.0 mg/kg/injection, schedule: Q01DX010 (ip), vehicle: water): 105 % of control
- T/C (dose: 3.0 mg/kg/injection, schedule: Q04DX003 (ip), vehicle: saline): 236 % of control and 244 % of control
- T/C (dose: 4.0 mg/kg/injection, schedule: Q01DX001 (ip), vehicle: saline): 157 % of control
- T/C (dose: 5.0 mg/kg/injection, schedule: Q04DX003 (ip), vehicle: saline): 90 % of control and 112 % of control
- T/C (dose: 6.0 mg/kg/injection, schedule: Q01DX001 (ip), vehicle: saline): 176 % of control
- T/C (dose: 8.0 mg/kg/injection, schedule: Q01DX001 (ip), vehicle: saline): 176 % of control

Compound: C[C@@H]1O[C@@H](O[C@H]2CC[C@]3(C=O)[C@H]4CC[C@]5(C)[C@@H](c6ccc(=O)oc6)CC[C@]5(O)[C@@H]4CC[C@]3(O)C2)[C@H](O)[C@H](O)[C@H]1O[C@@H]1O[C@H](CO)[C@@H](O)[C@H](O)[C@H]1O
- T/C (dose: 0.6 mg/kg/injection, schedule: Q01DX010 (ip), vehicle: carboxymethylcellulose (CMC)): 95 % of control
- T/C (dose: 1.2 mg/kg/injection, schedule: Q01DX010 (ip), vehicle: carboxymethylcellulose (CMC)): 104 % of control
- T/C (dose: 2.5 mg/kg/injection, schedule: Q01DX010 (ip), vehicle: carboxymethylcellulose (CMC)): 95 % of control and 120 % of control
- T/C (dose: 5.0 mg/kg/injection, schedule: Q01DX010 (ip), vehicle: carboxymethylcellulose (CMC)): 100 % of control

Compound: C(#CCN1CCOCC1)CCCN1CCOCC1
- T/C (dose: 100.0 mg/kg/injection, schedule: Q04DX003 (ip), vehicle: saline): 95 % of control
- T/C [2]: 100 % of control
- T/C [3]: 100 % of control

Compound: CC(=O)Nc1ccc2cnn(C(C)=O)c2c1
- T/C (dose: 25.0 mg/kg/injection, schedule: Q01DX009 (ip), vehicle: water): 89 % of control
- T/C (dose: 50.0 mg/kg/injection, schedule: Q01DX009 (ip), vehicle: water): 86 % of control
- T/C (dose: 50.0 mg/kg/injection, schedule: Q04DX003 (ip), vehicle: water): 113 % of control
- T/C (dose: 100.0 mg/kg/injection, schedule: Q01DX009 (ip), vehicle: water): 88 % of control
- T/C (dose: 100.0 mg/kg/injection, schedule: Q04DX003 (ip), vehicle: water): 111 % of control
- T/C (dose: 200.0 mg/kg/injection, schedule: Q01DX009 (ip), vehicle: water): 92 % of control
- T/C (dose: 200.0 mg/kg/injection, schedule: Q04DX003 (ip), vehicle: water): 97 % of control
- T/C (dose: 400.0 mg/kg/injection, schedule: Q01DX009 (ip), vehicle: water): 91 % of control
- T/C (dose: 400.0 mg/kg/injection, schedule: Q04DX003 (ip), vehicle: water): 97 % of control

Compound: O=C1c2ccccc2C(=O)c2c(NCCCCCO)ccc(NCCCCCO)c21
- T/C (dose: 25.0 mg/kg/injection, schedule: Q01DX009 (ip), vehicle: other): 88 % of control
- T/C (dose: 100.0 mg/kg/injection, schedule: Q01DX009 (ip), vehicle: other): 88 % of control

Compound: O=c1c2ccccc2[nH]c2ccc(Cl)cc12
- T/C [4]: 97 % of control
- T/C [5]: 98 % of control
- T/C [6]: 89 % of control

Compound: C1=C(c2ccccc2)CS1
- T/C (dose: 25.0 mg/kg/injection, schedule: Q01DX001 (ip), vehicle: saline with Tween-80): 104 % of control
- T/C (dose: 50.0 mg/kg/injection, schedule: Q01DX001 (ip), vehicle: saline with Tween-80): 101 % of control

Compound: C=C(NC(=O)C(=C)NC(=O)c1csc(C2=NC3c4csc(n4)C4NC(=O)c5csc(n5)C(C(C)(O)C(C)O)NC(=O)C5CSC(=N5)/C(=C/C)NC(=O)C(C(C)O)NC(=O)c5csc(n5)C3(CC2)NC(=O)C(C)NC(=O)C(=C)NC(=O)C(C)NC(=O)C(C(C)CC)NC2C=Cc3c(C(C)O)cc(nc3C2O)C(=O)OC4C)n1)C(N)=O (stereo not given)
- T/C (dose: 18.75 mg/kg/injection, schedule: Q01DX009 (ip), vehicle: Klucel (hydroxypropylcellulose) (HPC)): 112 % of control
- T/C (dose: 37.5 mg/kg/injection, schedule: Q01DX009 (ip), vehicle: Klucel (hydroxypropylcellulose) (HPC)): 114 % of control
- T/C [7]: 158 % of control
- T/C (dose: 75.0 mg/kg/injection, schedule: Q01DX009 (ip), vehicle: Klucel (hydroxypropylcellulose) (HPC)): 114 % of control
- T/C [8]: 155 % of control and 163 % of control
- T/C [9]: 156 % of control and 165 % of control and 182 % of control
- T/C (dose: 300.0 mg/kg/injection, schedule: Q01DX009 (ip), vehicle: Klucel (hydroxypropylcellulose) (HPC)): 114 % of control

Compound: O=C1OC(=O)C2C3C=CC(O3)C12 (stereo not given)
- T/C (dose: 3.28 mg/kg/injection, schedule: Q04DX003 (ip), vehicle: saline): 100 % of control
- T/C (dose: 6.25 mg/kg/injection, schedule: Q01DX009 (ip), vehicle: saline): 110 % of control
- T/C (dose: 6.56 mg/kg/injection, schedule: Q04DX003 (ip), vehicle: saline): 100 % of control
- T/C [10]: 104 % of control and 105 % of control
- T/C (dose: 13.12 mg/kg/injection, schedule: Q04DX003 (ip), vehicle: saline): 100 % of control
- T/C [11]: 90 % of control and 104 % of control
- T/C (dose: 35.0 mg/kg/injection, schedule: Q01DX009 (ip), vehicle: saline): 104 % of control

Compound: O=NN(CCCl)C(=O)Nc1ccc2c3c(cccc13)-c1ccccc1-2
- T/C [7]: 156 % of control and 157 % of control
- T/C [8]: 156 % of control and 157 % of control
- T/C [9]: 161 % of control and 170 % of control
- T/C (dose: 400.0 mg/kg/injection, schedule: Q01DX009 (ip), vehicle: Klucel (hydroxypropylcellulose) (HPC)): 93 % of control

Compound: CC[N+](CC)(CC)CC
- T/C (dose: 3.13 mg/kg/injection, schedule: Q01DX009 (ip), vehicle: saline with Tween-80): 110 % of control
- T/C (dose: 6.0 mg/kg/injection, schedule: Q01DX009 (ip), vehicle: saline with Tween-80): 183 % of control
- T/C (dose: 9.0 mg/kg/injection, schedule: Q01DX009 (ip), vehicle: saline with Tween-80): 94 % of control
- T/C [10]: 107 % of control
- T/C (dose: 12.5 mg/kg/injection, schedule: Q04DX003 (ip), vehicle: saline): 95 % of control
- T/C [11]: 107 % of control
- T/C (dose: 25.0 mg/kg/injection, schedule: Q04DX003 (ip), vehicle: saline): 91 % of control
- T/C [1]: 92 % of control
- T/C (dose: 50.0 mg/kg/injection, schedule: Q04DX003 (ip), vehicle: saline): 100 % of control
